In publication PMC2120067 (The Journal of Cell Biology, 1994):
Blank lines part the entries; values can stand above or below the substance they belong to.

Tests used:
[1] = tested on: angiogenic bovine aortic endothelial (BAE) cells; assay: Quantitation of endothelial cord formation; assay type: cell-based
[2] = tested on: new vessel growth in vivo; settings: ref Raju et al., 1982; cited from earlier work
[3] = tested on: chicken chorioallantoic membrane (CAM); assay: CAM angiogenesis assay; assay type: in vivo; settings: methylcellulose disk on chick CAM
[4] = Copper-binding study by electrospray mass spectrometry; settings: 10 µM KGHK and KGRK mixed with 8 µM Cu2+, electrospray MS
[5] = Magnesium-binding control by electrospray mass spectrometry; settings: 20 µM KGHK + 50 µM MgSO4 in 20 mM NH4HCO3 (pH 7.5), electrospray MS
[6] = Spectroscopic analysis of copper binding; settings: saturable; not displaced with 100-fold excesses of Na, K, Ca, or Mg ions; not shown

Substance: N-gly- cyl-L-histidyl-L-lysine-OH [GHK]
Stimulation of endothelial cord formation, peptide pretreated with CuSO4 ([1]; pretreatment of peptide with CuSO4, not shown): significant angiogenic stimulation | Stimulation of new vessel growth in vivo [2]: little effect

Formation of 1:1 complex with magnesium [5]: did not form | Change of absorbance on addition of copper ions [6]: increase in absorbance at 580 nm
Substance: KGHK [N-lysyl-L-glycyl-L-histidyl-L-lysine- OH]
Lowest application eliciting angiogenic activity in the CAM [3]: 50 ng/disk | Direct competition for limiting copper ions [4]: all copper ions were sequestered in a KGHK:Cu complex

Substance: bovine serum albumin: control protein [reference compound]
Stimulation of endothelial cord formation ([1]; bovine serum albumin, concentration not given): no stimulatory effect
